Data set [1] deals with T1, cGMP-specific 3',5'-cyclic phosphodiesterase (Homo sapiens, UniProt O76074). The experiment in a line: 3H-cAMP and 3H-cGMP Scintillation Proximity Assay (PDE5A). For orientation: Scintillation proximity formats need no separation of bound from free tracer.
Data set [2] concerns the target cAMP and cAMP-inhibited cGMP 3',5'-cyclic phosphodiesterase 10A (Homo sapiens, UniProt Q9Y233). The data set is described as follows: 3H-cAMP and 3H-cGMP Scintillation Proximity Assay (PDE10A).
Data set [3] has as its target Acetylcholinesterase (Homo sapiens) (UniProt P22303). The experiment in a line: Cholinesterase, Acetyl, ACES Eurofins Panlabs panel. Particulars: Compound concentration 10.0 uM; call rule not given here.
Data set [4] addresses Prostaglandin G/H synthase 1 (Homo sapiens) (UniProt P23219). The experiment in a line: Cyclooxygenase COX-1 Eurofins Panlabs panel. Particulars: Compound concentration 10.0 uM.
In data set [5] the target is Monoamine oxidase A (MAO-A) (Homo sapiens, UniProt P21397). The experiment in a line: Monoamine Oxidase MAO-A Eurofins Panlabs panel. The settings on record: compound concentration 10 uM.
The target in data set [6] is Nitric oxide synthase 1 (Rattus norvegicus) (UniProt P29476). The data set is described as follows: Nitric Oxide Synthase, Neuronal (nNOS) Eurofins Panlabs panel. Particulars: Compound concentration 10.0 uM.
Data set [7] concerns the target Nitric oxide synthase, inducible (Mus musculus) (UniProt P29477). The experiment in a line: Nitric Oxide Synthetase, Inducible (iNOS) Eurofins Panlabs panel. Particulars: Compound concentration 10.0 uM.
The target of data set [8] is Angiotensin-converting enzyme (Oryctolagus cuniculus) (UniProt P12822). The data set is described as follows: Peptidase, Angiotensin Converting Enzyme Eurofins Panlabs panel. The settings on record: Compound concentration 10.0 uM.
Data set [9] has as its target Phosphodiesterase 3 (Homo sapiens) (UniProt Q14432+Q13370). The experiment in a line: Phosphodiesterase PDE3 Eurofins Panlabs panel. Type of data set: protein assay. The settings on record: Compound concentration 10.0 uM.
The target in data set [10] is Adenosine receptor A1 (Homo sapiens) (UniProt P30542). The experiment in a line: Adenosine A1 Eurofins Panlabs panel. The settings on record: Compound concentration 10.0 uM.
Data set [11] concerns the target Adenosine receptor A2a (Homo sapiens) (UniProt P29274). The data set is described as follows: Adenosine A2A Eurofins Panlabs panel. The settings on record: Compound concentration 10.0 uM.
Data set [12] addresses Alpha-1A adrenergic receptor (Rattus norvegicus) (UniProt P43140). The data set is described as follows: Adrenergic alpha1A Eurofins Panlabs panel. The settings on record: Compound concentration 10.0 uM.
Data set [13] deals with Beta-1 adrenergic receptor (Homo sapiens) (UniProt P08588). The experiment in a line: Adrenergic beta1 Eurofins Panlabs panel. The settings on record: Compound concentration 10.0 uM.
The target in data set [14] is Type-1 angiotensin II receptor (Homo sapiens) (UniProt P30556). The data set is described as follows: Angiotensin AT1 Eurofins Panlabs panel. Particulars: Compound concentration 10.0 uM.
Data set [15] has as its target B1 bradykinin receptor (Homo sapiens) (UniProt P46663). The data set is described as follows: Bradykinin B1 Eurofins Panlabs panel. Particulars: Compound concentration 10.0 uM.
For data set [16], the target named is D(3) dopamine receptor (Homo sapiens) (UniProt P35462). The experiment in a line: Dopamine D3 Eurofins Panlabs panel. The settings on record: Compound concentration 10.0 uM.
For data set [17], the target named is Glucocorticoid receptor (Homo sapiens) (UniProt P04150). The data set is described as follows: Glucocorticoid Eurofins Panlabs panel. The settings on record: Compound concentration 10.0 uM.
Data set [18] deals with Glutamate NMDA receptor (Rattus norvegicus) (UniProt P35439+Q00959+Q00960+Q00961+Q62645+Q8VHN2+Q9R1M7). The data set is described as follows: Glutamate, NMDA, Glycine Eurofins Panlabs panel. Type of data set: protein-complex assay. Particulars: Compound concentration 10.0 uM.
For data set [19], the target named is Histamine H3 receptor (Homo sapiens) (UniProt Q9Y5N1). The experiment in a line: Histamine H3 Eurofins Panlabs panel. The settings on record: Compound concentration 10.0 uM.
Data set [20] addresses Muscarinic acetylcholine receptor M3 (Homo sapiens) (UniProt P20309). The data set is described as follows: Muscarinic M3 Eurofins Panlabs panel. The settings on record: Compound concentration 10.0 uM.
A further data set has as its target Mu-type opioid receptor (Homo sapiens, UniProt P35372). The experiment in a line: Opiate ??(OP3, MOP) Eurofins Panlabs panel. Particulars: Compound concentration 10.0 uM.
Data set [21] addresses T2, 5-hydroxytryptamine receptor 1A (Homo sapiens) (UniProt P08908).
T2 sequence (whole entry): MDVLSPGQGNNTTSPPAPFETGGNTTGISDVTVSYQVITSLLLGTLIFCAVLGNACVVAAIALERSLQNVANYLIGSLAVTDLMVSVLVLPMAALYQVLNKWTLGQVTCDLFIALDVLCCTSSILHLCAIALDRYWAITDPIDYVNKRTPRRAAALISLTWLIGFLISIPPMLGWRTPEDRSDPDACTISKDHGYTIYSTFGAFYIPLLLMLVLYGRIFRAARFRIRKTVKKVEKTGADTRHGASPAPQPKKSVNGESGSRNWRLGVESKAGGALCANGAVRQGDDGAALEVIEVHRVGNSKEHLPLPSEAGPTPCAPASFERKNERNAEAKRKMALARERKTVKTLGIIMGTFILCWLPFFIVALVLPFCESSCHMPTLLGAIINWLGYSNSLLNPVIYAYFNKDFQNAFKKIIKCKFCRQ
The data set is described as follows: Serotonin (5-Hydroxytryptamine) 5-HT1A Eurofins Panlabs panel. Particulars: Compound concentration 10.0 uM.

Data set [22] deals with 5-hydroxytryptamine receptor 2A (Homo sapiens) (UniProt P28223). The experiment in a line: Serotonin (5-Hydroxytryptamine) 5-HT2A Eurofins Panlabs panel. The settings on record: Compound concentration 10.0 uM.
Data set [23] has as its target 5-hydroxytryptamine receptor 2B (Homo sapiens) (UniProt P41595). The experiment in a line: Serotonin (5-Hydroxytryptamine) 5-HT2B Eurofins Panlabs panel. Particulars: Compound concentration 10.0 uM.
Data set [24] has as its target 5-hydroxytryptamine receptor 4 (Cavia porcellus) (UniProt O70528). The data set is described as follows: Serotonin (5-Hydroxytryptamine) 5-HT4 Eurofins Panlabs panel. The settings on record: Compound concentration 10.0 uM.
Data set [25] concerns the target GABA transporter (Rattus norvegicus) (UniProt P31647+P23978+P31646+P48056). The data set is described as follows: Transporter, GABA Eurofins Panlabs panel. Format: protein assay. Particulars: Compound concentration 10.0 uM.
Data set [26] has as its target Vasopressin V1a receptor (Homo sapiens) (UniProt P37288). The data set is described as follows: Vasopressin V1A Eurofins Panlabs panel. Particulars: concentration not given here.
In data set [27] the target is L-type calcium channel, benzothiazepine site (Rattus norvegicus, UniProt P22002+P27732+Q02485). The data set is described as follows: Calcium Channel L-Type, Benzothiazepine Eurofins Panlabs panel. Format: protein assay. Particulars: compound concentration 10 uM.
The target in data set [28] is L-type calcium channel, dihydropyridine site (Rattus norvegicus, UniProt P22002+P27732+Q02485). The experiment in a line: Calcium Channel L-Type, Dihydropyridine Eurofins Panlabs panel. Format: protein assay. Particulars: compound concentration 10 uM.
The target in data set [29] is hERG (KCNH2) potassium channel (Homo sapiens, UniProt Q12809). The experiment in a line: Potassium Channel hERG Eurofins Panlabs panel. Particulars: compound concentration 10 uM. (Block of hERG is tested as a sign of cardiac risk.)
In data set [30] the target is Prostaglandin E2 receptor EP1 subtype (Homo sapiens) (UniProt P34995). The data set is described as follows: Prostanoid EP1 Eurofins Panlabs panel. Particulars: Compound concentration 10.0 uM.
In data set [31] the target is Voltage-gated sodium channel, site 2 (Rattus norvegicus, UniProt F1LQQ7+O08562+O88420+O88457+P04774+P04775+P08104+P15389+P15390+Q62968). The experiment in a line: Sodium Channel, Site 2 Eurofins Panlabs panel. The settings on record: compound concentration 10 uM. Type of data set: protein assay.
Data set [32] has as its target Muscarinic acetylcholine receptor M5 (Homo sapiens) (UniProt P08912). Particulars: Compound concentration 10.0 uM.
Data set [33] addresses cGMP-inhibited 3',5'-cyclic phosphodiesterase 3A (Homo sapiens) (UniProt Q14432). The data set is described as follows: Panlabs assay PDE3A. On the set-up: compound concentration 10 uM. The settings on record: at 10 µM.
The target of data set [34] is 3',5'-cyclic-AMP phosphodiesterase 4A (Homo sapiens) (UniProt P27815). The experiment in a line: Panlabs assay PDE4A1A. On the set-up: compound concentration 10 uM. Particulars: at 10 µM.
Data set [35] has as its target 3',5'-cyclic-AMP phosphodiesterase 4D (Homo sapiens) (UniProt Q08499). The experiment in a line: Panlabs assay PDE4D2. On the set-up: compound concentration 10 uM. Particulars: at 10 µM.
Data set [36] concerns the target T1, cGMP-specific 3',5'-cyclic phosphodiesterase. The experiment in a line: Panlabs assay PDE5A. On the set-up: compound concentration 10 uM. The settings on record: at 10 µM.

Bounds are passed on as bounds.

Chain of Muscarinic acetylcholine receptor M5 (Homo sapiens) (P08912 whole entry): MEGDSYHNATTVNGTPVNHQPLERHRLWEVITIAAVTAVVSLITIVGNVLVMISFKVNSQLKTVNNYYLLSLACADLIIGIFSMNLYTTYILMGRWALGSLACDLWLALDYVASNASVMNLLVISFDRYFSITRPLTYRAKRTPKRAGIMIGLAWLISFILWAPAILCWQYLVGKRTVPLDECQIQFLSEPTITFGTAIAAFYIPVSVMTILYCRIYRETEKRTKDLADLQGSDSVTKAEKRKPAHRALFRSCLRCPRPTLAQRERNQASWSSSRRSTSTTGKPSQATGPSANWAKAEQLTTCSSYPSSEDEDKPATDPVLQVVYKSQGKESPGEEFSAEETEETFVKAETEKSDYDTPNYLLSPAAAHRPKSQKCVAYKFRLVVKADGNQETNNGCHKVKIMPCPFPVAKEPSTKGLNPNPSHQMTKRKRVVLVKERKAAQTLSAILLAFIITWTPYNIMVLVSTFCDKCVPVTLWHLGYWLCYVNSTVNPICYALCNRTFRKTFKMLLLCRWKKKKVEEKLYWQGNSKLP
Chain of Type-1 angiotensin II receptor (Homo sapiens) (P30556 whole entry): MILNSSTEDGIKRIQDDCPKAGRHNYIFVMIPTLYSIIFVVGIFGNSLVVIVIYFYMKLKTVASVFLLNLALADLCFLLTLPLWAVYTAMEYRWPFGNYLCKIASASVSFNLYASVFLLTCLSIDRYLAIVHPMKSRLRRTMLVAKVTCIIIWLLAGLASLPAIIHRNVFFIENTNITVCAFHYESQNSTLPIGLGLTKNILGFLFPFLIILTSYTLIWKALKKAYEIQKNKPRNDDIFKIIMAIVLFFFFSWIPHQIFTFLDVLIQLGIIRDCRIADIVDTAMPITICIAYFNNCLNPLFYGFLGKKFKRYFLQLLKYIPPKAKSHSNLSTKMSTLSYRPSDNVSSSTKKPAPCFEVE
Chain of Beta-1 adrenergic receptor (Homo sapiens) (P08588 whole entry, looked up): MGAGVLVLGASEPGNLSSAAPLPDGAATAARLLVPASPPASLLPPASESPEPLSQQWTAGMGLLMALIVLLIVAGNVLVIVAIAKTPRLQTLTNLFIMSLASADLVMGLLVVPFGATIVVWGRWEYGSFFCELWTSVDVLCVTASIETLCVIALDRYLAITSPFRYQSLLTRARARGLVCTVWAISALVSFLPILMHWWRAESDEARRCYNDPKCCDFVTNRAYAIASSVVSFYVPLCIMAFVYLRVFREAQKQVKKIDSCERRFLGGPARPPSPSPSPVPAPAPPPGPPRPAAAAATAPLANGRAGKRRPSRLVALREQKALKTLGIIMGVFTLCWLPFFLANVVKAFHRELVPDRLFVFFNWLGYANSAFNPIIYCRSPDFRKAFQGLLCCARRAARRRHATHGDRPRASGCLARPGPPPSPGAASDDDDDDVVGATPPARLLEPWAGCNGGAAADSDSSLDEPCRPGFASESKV
Chain of Adenosine receptor A2a (Homo sapiens) (P29274 whole entry): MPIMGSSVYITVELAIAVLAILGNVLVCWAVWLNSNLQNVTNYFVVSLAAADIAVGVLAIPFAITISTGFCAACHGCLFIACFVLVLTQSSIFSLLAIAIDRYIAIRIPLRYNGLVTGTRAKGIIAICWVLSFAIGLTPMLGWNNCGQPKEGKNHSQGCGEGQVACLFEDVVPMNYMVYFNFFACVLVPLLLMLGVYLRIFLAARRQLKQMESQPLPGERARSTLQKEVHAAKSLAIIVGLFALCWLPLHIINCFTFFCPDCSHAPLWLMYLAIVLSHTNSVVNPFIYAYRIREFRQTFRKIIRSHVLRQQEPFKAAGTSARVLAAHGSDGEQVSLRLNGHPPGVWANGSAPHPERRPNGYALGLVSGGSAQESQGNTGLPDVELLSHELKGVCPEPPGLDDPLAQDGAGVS
Chain of Glucocorticoid receptor (Homo sapiens) (P04150 whole entry): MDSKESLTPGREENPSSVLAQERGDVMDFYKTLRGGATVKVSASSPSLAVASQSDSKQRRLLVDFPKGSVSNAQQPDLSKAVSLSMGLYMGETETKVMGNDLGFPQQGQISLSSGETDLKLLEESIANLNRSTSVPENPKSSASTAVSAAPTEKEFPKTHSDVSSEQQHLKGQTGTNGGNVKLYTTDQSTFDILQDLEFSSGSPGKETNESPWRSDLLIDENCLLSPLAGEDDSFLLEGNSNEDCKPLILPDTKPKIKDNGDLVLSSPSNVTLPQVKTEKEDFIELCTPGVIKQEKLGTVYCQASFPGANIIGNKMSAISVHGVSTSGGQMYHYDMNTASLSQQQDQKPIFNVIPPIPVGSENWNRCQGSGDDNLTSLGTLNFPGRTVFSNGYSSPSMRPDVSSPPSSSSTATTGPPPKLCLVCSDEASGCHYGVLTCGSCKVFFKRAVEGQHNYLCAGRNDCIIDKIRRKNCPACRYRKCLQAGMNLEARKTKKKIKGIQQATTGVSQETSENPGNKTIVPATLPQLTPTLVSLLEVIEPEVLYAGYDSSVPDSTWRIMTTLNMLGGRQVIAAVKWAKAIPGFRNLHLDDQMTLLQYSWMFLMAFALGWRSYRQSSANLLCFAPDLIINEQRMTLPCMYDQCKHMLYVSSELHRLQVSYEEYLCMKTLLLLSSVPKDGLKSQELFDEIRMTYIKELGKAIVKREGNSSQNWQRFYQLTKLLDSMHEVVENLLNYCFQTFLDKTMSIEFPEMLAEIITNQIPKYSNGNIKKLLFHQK
Chain of 3',5'-cyclic-AMP phosphodiesterase 4D (Homo sapiens) (Q08499 whole entry): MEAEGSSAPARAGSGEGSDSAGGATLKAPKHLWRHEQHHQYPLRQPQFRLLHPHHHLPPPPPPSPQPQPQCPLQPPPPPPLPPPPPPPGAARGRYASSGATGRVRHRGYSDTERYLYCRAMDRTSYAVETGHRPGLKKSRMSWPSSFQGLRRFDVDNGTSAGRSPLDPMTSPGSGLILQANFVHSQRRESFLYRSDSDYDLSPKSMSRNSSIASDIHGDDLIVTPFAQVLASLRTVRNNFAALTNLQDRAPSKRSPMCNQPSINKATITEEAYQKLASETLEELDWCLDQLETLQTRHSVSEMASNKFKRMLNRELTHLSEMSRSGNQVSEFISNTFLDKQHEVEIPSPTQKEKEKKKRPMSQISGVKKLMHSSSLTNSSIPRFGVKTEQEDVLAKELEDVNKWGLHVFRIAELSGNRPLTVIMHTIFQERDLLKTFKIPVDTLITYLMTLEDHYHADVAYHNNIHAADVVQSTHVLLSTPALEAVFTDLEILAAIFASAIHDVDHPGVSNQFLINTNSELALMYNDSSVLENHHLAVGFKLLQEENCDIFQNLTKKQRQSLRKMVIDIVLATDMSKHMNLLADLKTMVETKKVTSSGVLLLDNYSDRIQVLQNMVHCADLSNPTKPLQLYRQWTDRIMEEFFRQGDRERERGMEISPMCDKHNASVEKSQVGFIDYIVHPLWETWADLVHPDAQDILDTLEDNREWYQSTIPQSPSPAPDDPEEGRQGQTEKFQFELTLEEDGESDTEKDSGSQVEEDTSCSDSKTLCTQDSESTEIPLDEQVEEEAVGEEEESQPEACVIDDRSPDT
Chain of Prostaglandin E2 receptor EP1 subtype (Homo sapiens) (P34995 whole entry): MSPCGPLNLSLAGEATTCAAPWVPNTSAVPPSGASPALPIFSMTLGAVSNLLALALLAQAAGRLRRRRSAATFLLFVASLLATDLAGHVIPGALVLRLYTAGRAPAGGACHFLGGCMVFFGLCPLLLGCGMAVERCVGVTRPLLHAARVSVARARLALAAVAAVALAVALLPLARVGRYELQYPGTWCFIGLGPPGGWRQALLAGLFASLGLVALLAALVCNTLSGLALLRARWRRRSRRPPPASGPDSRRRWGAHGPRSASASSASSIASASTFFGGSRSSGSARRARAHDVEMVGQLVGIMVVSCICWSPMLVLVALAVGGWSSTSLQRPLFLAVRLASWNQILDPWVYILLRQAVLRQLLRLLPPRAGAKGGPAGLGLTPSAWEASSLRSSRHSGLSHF
Chain of D(3) dopamine receptor (Homo sapiens) (P35462 whole entry): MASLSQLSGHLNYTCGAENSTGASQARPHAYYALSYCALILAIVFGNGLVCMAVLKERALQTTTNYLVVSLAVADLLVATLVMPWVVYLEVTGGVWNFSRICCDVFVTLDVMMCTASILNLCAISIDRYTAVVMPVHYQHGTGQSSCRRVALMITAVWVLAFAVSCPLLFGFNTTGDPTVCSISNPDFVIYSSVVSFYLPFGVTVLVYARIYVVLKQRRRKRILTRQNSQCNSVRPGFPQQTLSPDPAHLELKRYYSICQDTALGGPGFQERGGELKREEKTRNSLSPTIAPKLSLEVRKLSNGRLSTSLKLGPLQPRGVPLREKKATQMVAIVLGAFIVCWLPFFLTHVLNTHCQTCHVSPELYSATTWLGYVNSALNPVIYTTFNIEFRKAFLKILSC
Chain of Histamine H3 receptor (Homo sapiens) (Q9Y5N1 whole entry): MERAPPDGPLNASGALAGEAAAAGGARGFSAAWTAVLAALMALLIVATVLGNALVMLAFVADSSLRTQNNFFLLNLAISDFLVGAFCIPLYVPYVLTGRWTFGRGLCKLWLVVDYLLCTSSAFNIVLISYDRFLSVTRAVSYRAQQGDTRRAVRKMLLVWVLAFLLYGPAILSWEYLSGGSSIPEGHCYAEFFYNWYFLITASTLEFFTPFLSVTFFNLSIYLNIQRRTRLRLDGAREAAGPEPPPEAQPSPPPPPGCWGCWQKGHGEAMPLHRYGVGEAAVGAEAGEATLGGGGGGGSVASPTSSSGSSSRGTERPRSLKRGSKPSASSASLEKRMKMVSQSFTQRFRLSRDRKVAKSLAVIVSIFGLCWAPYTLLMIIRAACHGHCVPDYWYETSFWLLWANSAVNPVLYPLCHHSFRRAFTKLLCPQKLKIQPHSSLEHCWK
Chain of Adenosine receptor A1 (Homo sapiens) (P30542 whole entry): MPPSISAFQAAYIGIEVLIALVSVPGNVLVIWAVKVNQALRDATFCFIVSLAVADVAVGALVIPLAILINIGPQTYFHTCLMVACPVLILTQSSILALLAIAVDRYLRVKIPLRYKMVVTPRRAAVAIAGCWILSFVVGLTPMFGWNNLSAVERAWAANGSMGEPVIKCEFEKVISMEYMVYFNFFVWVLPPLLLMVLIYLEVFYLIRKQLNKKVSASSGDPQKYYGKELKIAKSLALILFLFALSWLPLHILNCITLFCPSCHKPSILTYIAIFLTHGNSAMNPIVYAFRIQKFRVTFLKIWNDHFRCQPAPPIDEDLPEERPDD

In general, IC50 refers to the concentration at which inhibition is half-maximal. As usually defined, the inhibition is the relative decrease from the control value, in per cent. For `CCC[C@H]1CNCc2c1[nH]c(=O)c(C#N)c2N1CCC2(CC1)CC2`, the figures for the IC50 in data set [1] and in data set [2] were 2.98 µM (not active) and > 10 µM (not active), respectively. The inhibition in data set [3] is 5%; in data set [4], 1%; in [6], -2%; in data set [7], 6%; in [8], 4%; in data set [9], -1.5%. Besides, the inhibition in data set [10] came out at 16%; in [11], 2%; in data set [12] it was 2%; in [13] it was 5.2%; in data set [14], 5%; in [15] it was 1%. In addition, the inhibition in data set [16] is 2%; in data set [17], 4.67%; in data set [18] it was -2%; in [19], 5%; in [20], -9%; at Mu-type opioid receptor, 18.4%. Moreover, the inhibition in data set [21] was 10%; in [22], 2%; in data set [23], 13%; in data set [24], 22%; in data set [25], 11%; in data set [26], 0%. In addition, the figures for the inhibition in [30] and in [32] were 8% and -6.97%, respectively. Besides, the inhibition at 10 µM in [5] is 2%; in data set [27] it was 18.5%; in data set [28], 29%; in data set [29], 18.5%; in data set [31] it was -4%.

Take `CCC[C@@H]1CNCc2c1[nH]c(=O)c(C#N)c2N1CCC2(CC1)CC2`: the inhibition in data set [33] is -1.3%; in data set [34] it was 6.8%; in data set [35], 19.1%; in [36], 12.2%.

The values above are taken from ChEMBL document CHEMBL5303765, “Data for DCP probe BAY-7081” (2023).
